Results taken from patent US5753617A, “Peptide inhibitors of cellular adhesion” (Centocor, Inc., priority 1995, dated 1998).
Where two headings read alike, the source gives them in different places. Where a SMILES comes first, the peptide text is derived from it. Bridges are numbered along the chain shown (N, C = ends). [ ]: non-standard residue; d: D form.

Tests used:
[1] = disulfide bond, water
P-selectin = target: T1, P-selectin (Homo sapiens, UniProt P16109); test: Inhibition of human neutrophil adhesion to purified P-selectin immobilized on plastic wells; type: cell-based; conditions: inhibiting the binding of human neutrophils to P-selectin
T1 construct: P-selectin is isolated from human platelet lysates; from tissue; host or cells: human platelets (outdated platelet packs from a blood bank)
T1 sequence (P16109 42-830): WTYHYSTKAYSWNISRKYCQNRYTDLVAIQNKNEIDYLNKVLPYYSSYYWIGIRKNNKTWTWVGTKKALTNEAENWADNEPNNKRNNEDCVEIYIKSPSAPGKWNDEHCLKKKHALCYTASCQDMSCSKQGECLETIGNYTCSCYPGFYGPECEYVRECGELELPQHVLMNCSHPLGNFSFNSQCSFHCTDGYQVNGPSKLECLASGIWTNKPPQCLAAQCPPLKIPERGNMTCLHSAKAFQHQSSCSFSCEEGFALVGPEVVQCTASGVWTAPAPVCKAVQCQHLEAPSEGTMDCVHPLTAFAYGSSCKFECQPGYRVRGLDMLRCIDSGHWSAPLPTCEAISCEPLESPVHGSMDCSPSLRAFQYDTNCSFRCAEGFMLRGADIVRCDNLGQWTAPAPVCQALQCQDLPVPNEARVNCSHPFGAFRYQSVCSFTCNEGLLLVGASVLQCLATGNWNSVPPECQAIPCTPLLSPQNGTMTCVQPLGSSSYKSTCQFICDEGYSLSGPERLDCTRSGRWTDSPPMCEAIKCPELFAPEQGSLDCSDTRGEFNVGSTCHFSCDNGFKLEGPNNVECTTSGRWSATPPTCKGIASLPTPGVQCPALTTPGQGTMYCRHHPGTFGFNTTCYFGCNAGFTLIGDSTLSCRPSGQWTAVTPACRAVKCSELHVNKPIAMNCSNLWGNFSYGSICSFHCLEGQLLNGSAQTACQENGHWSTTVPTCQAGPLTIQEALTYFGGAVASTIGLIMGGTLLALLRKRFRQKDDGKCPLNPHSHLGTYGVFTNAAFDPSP
Method in brief: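 Isolated human neutrophils (2×10^5 per well) in HBSS with Ca2+/Mg2+ and HSA added to wells coated overnight at 4° C with platelet-derived P-selectin (5 micrograms/mL), HSA-blocked; 20 min at 22° C. Nonadherent cells removed by inverted centrifugation at 150 g; adherent cells quantified by myeloperoxidase activity.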

## CC[C@H](C)[C@H](NC(=O)[C@H](CCCCN)NC(=O)[C@@H](N)CCCNC(=N)N)C(=O)NCC(=O)NCC(=O)N[C@H]1CSSC[C@@H](C(N)=O)NC(=O)[C@H](Cc2c[nH]c3ccccc23)NC(=O)[C@H]([C@@H](C)O)NC(=O)[C@H](Cc2c[nH]c3ccccc23)NC1=O [(33)] (H-RKIGGCWTWC-NH2; disulfide 6-10)
[1]; from CC[C@H](C)[C@H](NC(=O)[C@H](CCCCN)NC(=O)[C@@H](N)CCCNC(=N)N)C(=O)NCC(=O)NCC(=O)N[C@@H](CS)C(=O)N[C@@H](Cc1c[nH]c2ccccc12)C(=O)N[C@H](C(=O)N[C@@H](Cc1c[nH]c2ccccc12)C(=O)N[C@@H](CS)C(N)=O)[C@@H](C)O, DMSO, 0.7 mM, 25.0 °C, 16.0 h
  ring closure, yield of all isomers: 5.3%
P-selectin
  IC50: 468 µM

## CC(C)[C@@H](NC(=O)[C@@H](Cc1c[nH]c2ccccc12)NC(=O)[C@H](NC(=O)[C@@H](Cc1c[nH]c2ccccc12)NC(=O)[C@H]1CSSC[C@@H](NC(=O)[C@@H](CCCCN)NC(=O)[C@H](N)CCCNC(=N)N)C(=O)N[C@@H](C)C(=O)N[C@@H](Cc2ccccc2)C(=O)N1)[C@H](C)O)C(N)=O [(37)] (H-[dR][dK][dC]AF[dC][dW][dT][dW][dV]-NH2; disulfide 3-6)
[1]; from CC(C)[C@@H](NC(=O)[C@@H](Cc1c[nH]c2ccccc12)NC(=O)[C@H](NC(=O)[C@@H](Cc1c[nH]c2ccccc12)NC(=O)[C@@H](CS)NC(=O)[C@H](Cc1ccccc1)NC(=O)[C@H](C)NC(=O)[C@@H](CS)NC(=O)[C@@H](CCCCN)NC(=O)[C@H](N)CCCNC(=N)N)[C@H](C)O)C(N)=O, air/Cu wire, ammonium acetate, 0.731 mM, 22.0 h
  ring closure, yield of all isomers: 1.3%
P-selectin
  IC50: 205 µM

## CC(C)[C@@H](NC(=O)[C@@H](Cc1c[nH]c2ccccc12)NC(=O)[C@H](NC(=O)[C@@H](Cc1c[nH]c2ccccc12)NC(=O)[C@H]1CSSC[C@@H](NC(=O)[C@@H](CCCCN)NC(=O)[C@H](N)CCCNC(=N)N)C(=O)NCC(=O)N[C@@H](C)C(=O)N1)[C@H](C)O)C(N)=O [(38)] (H-[dR][dK][dC]GA[dC][dW][dT][dW][dV]-NH2; disulfide 3-6)
[1]; from CC(C)[C@@H](NC(=O)[C@@H](Cc1c[nH]c2ccccc12)NC(=O)[C@H](NC(=O)[C@@H](Cc1c[nH]c2ccccc12)NC(=O)[C@@H](CS)NC(=O)[C@H](C)NC(=O)CNC(=O)[C@@H](CS)NC(=O)[C@@H](CCCCN)NC(=O)[C@H](N)CCCNC(=N)N)[C@H](C)O)C(N)=O, air/Cu wire, NH4OH, 3.31 mM, 20.0 h
  ring closure, yield of all isomers: 15.1%
P-selectin
  IC50: 75 µM

## CC(C)[C@@H](NC(=O)[C@@H](Cc1c[nH]c2ccccc12)NC(=O)[C@H](NC(=O)[C@@H](Cc1c[nH]c2ccccc12)NC(=O)[C@H]1CSSC[C@@H](NC(=O)[C@@H](CCCCN)NC(=O)[C@H](N)CCCNC(=N)N)C(=O)N[C@@H](CCCNC(=N)N)C(=O)N[C@@H](Cc2ccccc2)C(=O)N1)[C@H](C)O)C(N)=O [(39)] (H-[dR][dK][dC]RF[dC][dW][dT][dW][dV]-NH2; disulfide 3-6)
[1]; from CC(C)[C@@H](NC(=O)[C@@H](Cc1c[nH]c2ccccc12)NC(=O)[C@H](NC(=O)[C@@H](Cc1c[nH]c2ccccc12)NC(=O)[C@@H](CS)NC(=O)[C@H](Cc1ccccc1)NC(=O)[C@H](CCCNC(=N)N)NC(=O)[C@@H](CS)NC(=O)[C@@H](CCCCN)NC(=O)[C@H](N)CCCNC(=N)N)[C@H](C)O)C(N)=O, DMSO, 0.315 mM, 25.0 °C, 96.0 h
  ring closure, yield of all isomers: 12.2%
P-selectin
  IC50: 30.6 µM

## CC(C)[C@@H](NC(=O)[C@@H](Cc1c[nH]c2ccccc12)NC(=O)[C@H](NC(=O)[C@@H](Cc1c[nH]c2ccccc12)NC(=O)[C@H]1CSSC[C@@H](NC(=O)[C@@H](CCCCN)NC(=O)[C@H](N)CCCNC(=N)N)C(=O)NCC(=O)N[C@@H](CC(N)=O)C(=O)N1)[C@H](C)O)C(N)=O [(41)] (H-[dR][dK][dC]GN[dC][dW][dT][dW][dV]-NH2; disulfide 3-6)
[1]; from CC(C)[C@@H](NC(=O)[C@@H](Cc1c[nH]c2ccccc12)NC(=O)[C@H](NC(=O)[C@@H](Cc1c[nH]c2ccccc12)NC(=O)[C@@H](CS)NC(=O)[C@H](CC(N)=O)NC(=O)CNC(=O)[C@@H](CS)NC(=O)[C@@H](CCCCN)NC(=O)[C@H](N)CCCNC(=N)N)[C@H](C)O)C(N)=O, Cu wire, dilute NH4OH (printed NH2OH), pH 8, 3.2 mM, 20.0 h
  ring closure, yield of all isomers: 6%
P-selectin
  IC50: 26.2 µM

## CC(C)[C@@H](NC(=O)[C@@H](Cc1c[nH]c2ccccc12)NC(=O)[C@H](NC(=O)[C@@H](Cc1c[nH]c2ccccc12)NC(=O)[C@H]1CSSC[C@@H](NC(=O)[C@@H](CCCCN)NC(=O)[C@H](N)CCCNC(=N)N)C(=O)NCC(=O)N[C@@H](CC(=O)O)C(=O)N1)[C@H](C)O)C(N)=O [(42)] (H-[dR][dK][dC]GD[dC][dW][dT][dW][dV]-NH2; disulfide 3-6)
[1]; from CC(C)[C@@H](NC(=O)[C@@H](Cc1c[nH]c2ccccc12)NC(=O)[C@H](NC(=O)[C@@H](Cc1c[nH]c2ccccc12)NC(=O)[C@@H](CS)NC(=O)[C@H](CC(=O)O)NC(=O)CNC(=O)[C@@H](CS)NC(=O)[C@@H](CCCCN)NC(=O)[C@H](N)CCCNC(=N)N)[C@H](C)O)C(N)=O, Cu wire, dilute NH4OH, pH 8, 3.19 mM, 20.0 h
  ring closure, yield of all isomers: 9.7%
P-selectin
  IC50: 944 µM

## CC(C)[C@@H](NC(=O)[C@@H](Cc1c[nH]c2ccccc12)NC(=O)[C@H](NC(=O)[C@@H](Cc1c[nH]c2ccccc12)NC(=O)[C@H]1CSSC[C@@H](NC(=O)[C@@H](CCCCN)NC(=O)[C@H](N)CCCNC(=N)N)C(=O)N[C@H](CCCNC(=N)N)C(=O)N[C@@H](Cc2ccccc2)C(=O)N1)[C@H](C)O)C(N)=O [(45)] (H-[dR][dK][dC][dR]F[dC][dW][dT][dW][dV]-NH2; disulfide 3-6)
[1]; from CC(C)[C@@H](NC(=O)[C@@H](Cc1c[nH]c2ccccc12)NC(=O)[C@H](NC(=O)[C@@H](Cc1c[nH]c2ccccc12)NC(=O)[C@@H](CS)NC(=O)[C@H](Cc1ccccc1)NC(=O)[C@@H](CCCNC(=N)N)NC(=O)[C@@H](CS)NC(=O)[C@@H](CCCCN)NC(=O)[C@H](N)CCCNC(=N)N)[C@H](C)O)C(N)=O, DMSO, 0.357 mM, 25.0 °C, 48.0 h
  ring closure, yield of all isomers: 15.5%
P-selectin
  IC50: 263 µM

## CC(C)[C@@H](NC(=O)[C@@H](Cc1c[nH]c2ccccc12)NC(=O)[C@H](NC(=O)[C@@H](Cc1c[nH]c2ccccc12)NC(=O)[C@H]1CSSC[C@@H](NC(=O)[C@@H](CCCCN)NC(=O)[C@H](N)CCCNC(=N)N)C(=O)N[C@H](Cc2c[nH]cn2)C(=O)N[C@@H](Cc2ccccc2)C(=O)N1)[C@H](C)O)C(N)=O [(47)] (H-[dR][dK][dC][dH]F[dC][dW][dT][dW][dV]-NH2; disulfide 3-6)
[1]; from CC(C)[C@@H](NC(=O)[C@@H](Cc1c[nH]c2ccccc12)NC(=O)[C@H](NC(=O)[C@@H](Cc1c[nH]c2ccccc12)NC(=O)[C@@H](CS)NC(=O)[C@H](Cc1ccccc1)NC(=O)[C@@H](Cc1c[nH]cn1)NC(=O)[C@@H](CS)NC(=O)[C@@H](CCCCN)NC(=O)[C@H](N)CCCNC(=N)N)[C@H](C)O)C(N)=O, DMSO, 0.698 mM, 24.0 h
  ring closure, yield of all isomers: 3.5%
P-selectin
  IC50: 7 µM

## CC[C@@H](C)[C@H]1NC(=O)CNC(=O)[C@H](NC(=O)[C@@H](CCCCN)NC(=O)[C@H](N)CCCNC(=N)N)CSSC[C@H](C(=O)N[C@H](Cc2c[nH]c3ccccc23)C(=O)N[C@@H](C(=O)N[C@H](Cc2c[nH]c3ccccc23)C(=O)N[C@@H](C(N)=O)C(C)C)[C@H](C)O)NC1=O [(52)] (H-[dR][dK][dC]G[dI][dC][dW][dT][dW][dV]-NH2; disulfide 3-6)
[1]; from CC[C@@H](C)[C@@H](NC(=O)CNC(=O)[C@@H](CS)NC(=O)[C@@H](CCCCN)NC(=O)[C@H](N)CCCNC(=N)N)C(=O)N[C@H](CS)C(=O)N[C@H](Cc1c[nH]c2ccccc12)C(=O)N[C@@H](C(=O)N[C@H](Cc1c[nH]c2ccccc12)C(=O)N[C@@H](C(N)=O)C(C)C)[C@H](C)O, DMSO, 0.341 mM, 25.0 °C, 72.0 h
  ring closure, yield of all isomers: 16.6%
P-selectin
  IC50: 10.3 µM

## CC(C)C[C@H]1NC(=O)CNC(=O)[C@H](NC(=O)[C@@H](CCCCN)NC(=O)[C@H](N)CCCNC(=N)N)CSSC[C@H](C(=O)N[C@H](Cc2c[nH]c3ccccc23)C(=O)N[C@@H](C(=O)N[C@H](Cc2c[nH]c3ccccc23)C(=O)N[C@@H](C(N)=O)C(C)C)[C@H](C)O)NC1=O [(53)] (H-[dR][dK][dC]G[dL][dC][dW][dT][dW][dV]-NH2; disulfide 3-6)
[1]; from CC(C)C[C@@H](NC(=O)CNC(=O)[C@@H](CS)NC(=O)[C@@H](CCCCN)NC(=O)[C@H](N)CCCNC(=N)N)C(=O)N[C@H](CS)C(=O)N[C@H](Cc1c[nH]c2ccccc12)C(=O)N[C@@H](C(=O)N[C@H](Cc1c[nH]c2ccccc12)C(=O)N[C@@H](C(N)=O)C(C)C)[C@H](C)O, DMSO, 0.252 mM, 25.0 °C, 48.0 h
  ring closure, yield of all isomers: 17.4%
P-selectin
  IC50: 18.7 µM
